Assay results published in patent US11795171B2, “Pyrrolotriazinones and imidazotriazinones as ubiquitin-specific protease 7 inhibitors” (Valo Health, Inc., priority 2014, dated 2023).

Target: USP7 (Homo sapiens (Human), UniProt Q93009)
Assay: USP7 Assay B (Ubitquin-Rhodamine110 Assay)
Assay type: biochemical
Conditions: Ub-Rh110 substrate 25 nM
Experimental: Stock compound solutions were stored at −20° C. as 10 mM in DMSO. […] Prestamped assay plates were allowed to come to room temperature on the day of the assay. For the screen, 100 nL of 2 mM was pre-dispensed for a final screening concentration of 10 μM (DMSO(fc)=0.5%). […] Unless otherwise indicated, all follow-up assays were run on triplecate plates. […] Pre-stamped with compounds were either not preincubated or preincubated with USP7 between 30 to 120 minutes prior to the addition of 10 μL of 2×Ub-Rh110 to compound plates. Plates were incubated stacked for either 23 or 45 minutes at room temperature before fluorescence was read on the Envision (Excitation at 485 nm and Emission at 535 nm; Perkin Elmer) or on the PheraSTAR (Excitation at 485 nm and Emission at 535 nm; BMG Labtech).
Data from USP7 Assays A and B were reported as percent inhibition (inh) compared with control wells based on the following equation: % inh=1−((FLU−AveLow)/(AveHigh−AveLow)) where FLU=measured Fluorescence (See Tables 2 and 3). AveLow=average Fluorescence of no enzyme control (n=16). AveHigh=average Fluorescence of DMSO control (n=16). IC50 values were determined by curve fitting of the standard 4 parameter logistic fitting algorithm included in the Activity Base software package: IDBS XE Designer Model205. Data is fitted using the Levenburg Marquardt algorithm.

USP7, sequence (Q93009 208-1102): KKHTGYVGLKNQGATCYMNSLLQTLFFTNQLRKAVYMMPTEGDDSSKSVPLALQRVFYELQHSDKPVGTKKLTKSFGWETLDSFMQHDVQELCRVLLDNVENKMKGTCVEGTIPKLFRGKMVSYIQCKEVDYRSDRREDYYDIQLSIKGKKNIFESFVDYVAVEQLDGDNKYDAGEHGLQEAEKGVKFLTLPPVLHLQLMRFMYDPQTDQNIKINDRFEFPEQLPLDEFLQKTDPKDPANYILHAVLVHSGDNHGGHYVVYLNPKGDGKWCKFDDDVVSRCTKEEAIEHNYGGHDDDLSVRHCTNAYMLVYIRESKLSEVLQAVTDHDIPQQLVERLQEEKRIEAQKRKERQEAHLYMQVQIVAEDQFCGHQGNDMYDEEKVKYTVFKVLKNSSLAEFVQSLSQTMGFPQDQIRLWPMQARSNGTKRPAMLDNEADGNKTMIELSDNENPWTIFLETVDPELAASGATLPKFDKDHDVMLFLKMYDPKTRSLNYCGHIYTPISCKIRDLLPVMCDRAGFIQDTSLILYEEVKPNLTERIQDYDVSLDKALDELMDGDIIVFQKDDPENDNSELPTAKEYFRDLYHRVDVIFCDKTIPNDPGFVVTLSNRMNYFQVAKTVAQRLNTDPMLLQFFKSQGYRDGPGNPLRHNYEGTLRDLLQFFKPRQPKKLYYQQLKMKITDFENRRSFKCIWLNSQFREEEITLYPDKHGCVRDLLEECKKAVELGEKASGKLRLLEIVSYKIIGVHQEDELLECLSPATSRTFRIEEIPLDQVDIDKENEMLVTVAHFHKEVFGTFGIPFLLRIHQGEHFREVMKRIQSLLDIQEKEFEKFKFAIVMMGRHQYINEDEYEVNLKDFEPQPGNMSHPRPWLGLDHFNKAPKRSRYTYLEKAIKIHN

First: O=C(C1CCN(c2nc3ccccc3o2)CC1)N1CCC(O)(Cn2cnn3cccc3c2=O)CC1 [Compound I-33, 3-((1-(1-(benzo[d]oxazol-2-yl)piperidine-4-carbonyl)-4-hydroxypiperidin-4-yl)methyl)pyrrolo[2,1-f][1,2,4]triazin-4(3H)-one]
Second: O=C(c1cccc(-c2ccccc2)c1)N1CCC(O)(Cn2cnn3cccc3c2=O)CC1 [Compound I-11, 3-((1-([1,1′-biphenyl]-3-carbonyl)-4-hydroxypiperidin-4-yl)methyl)pyrrolo[2,1-f][1,2,4]triazin-4(3H)-one]
The IC50 of the first is higher: greater than 10 µM for the first, 1 to 10 µM for the second.

First: NC(=O)c1ccc(-c2cccc(C(=O)N3CCC(O)(Cn4cnn5cccc5c4=O)CC3)c2)cc1 [Compound I-16, 3′-(4-hydroxy-4-((4-oxopyrrolo[2,1-f][1,2,4]triazin-3(4H)-yl)methyl)piperidine-1-carbonyl)-[1,1′-biphenyl]-4-carboxamide]
Second: N#Cc1ccc(-c2cccc(C(=O)N3CCC(O)(Cn4cnn5cccc5c4=O)CC3)c2)cc1 [Compound I-19, 3′-(4-hydroxy-4-((4-oxopyrrolo[2,1-f][1,2,4]triazin-3(4H)-yl)methyl)piperidine-1-carbonyl)-[1,1′-biphenyl]-4-carbonitrile]
The IC50 of the first is lower: 1 to 10 µM for the first, greater than 10 µM for the second. The first is the more potent here.

First: O=C(c1ccc(Oc2ccccc2)cc1)N1CCC(O)(Cn2cnn3cccc3c2=O)CC1 [Compound I-80, 3-((4-hydroxy-1-(4-phenoxybenzoyl)piperidin-4-yl)methyl)pyrrolo[2,1-f][1,2,4]triazin-4(3H)-one]
Second: Cc1ccccc1-c1cccc(C(=O)N2CCC(O)(Cn3cnn4cccc4c3=O)CC2)c1 [Compound I-6, 3-((4-hydroxy-1-(2′-methyl-[1,1′-biphenyl]-3-carbonyl)piperidin-4-yl)methyl)pyrrolo[2,1-f][1,2,4]triazin-4(3H)-one]
The IC50 of the first is higher: greater than 10 µM for the first, 1 to 10 µM for the second. The second is the more potent here.

`N#Cc1ccc(NC(=O)Nc2cc3c(=O)n(CC4(O)CCN(C(=O)C5CC5)CC4)cnn3c2)cc1` [Compound I-100, 1-(4-cyanophenyl)-3-(3-((1-(cyclopropanecarbonyl)-4-hydroxypiperidin-4-yl)methyl)-4-oxo-3,4-dihydropyrrolo[2,1-f][1,2,4]triazin-6-yl)urea] and `O=C(Nc1cccc(Cl)c1)Nc1cc2c(=O)n(CC3(O)CCN(C(=O)C4CC4)CC3)cnn2c1` [Compound I-85, 1-(3-chlorophenyl)-3-(3-((1-(cyclopropanecarbonyl)-4-hydroxypiperidin-4-yl)methyl)-4-oxo-3,4-dihydropyrrolo[2,1-f][1,2,4]triazin-6-yl)urea] cannot be ordered by IC50: greater than 10 µM for the first, greater than 10 µM for the second.

First: O=C(NC1CCCC1)c1cccc(-c2cccc(C(=O)N3CCC(O)(Cn4cnn5cccc5c4=O)CC3)c2)c1 [Compound I-26, N-cyclopentyl-3′-(4-hydroxy-4-((4-oxopyrrolo[2,1-f][1,2,4]triazin-3(4H)-yl)methyl)piperidine-1-carbonyl)-[1,1′-biphenyl]-3-carboxamide]
Second: O=C(c1cccc(-c2cccc(F)c2)c1)N1CCC(O)(Cn2cnn3cccc3c2=O)CC1 [Compound I-30, 3-((1-(3′-fluoro-[1,1′-biphenyl]-3-carbonyl)-4-hydroxypiperidin-4-yl)methyl)pyrrolo[2,1-f][1,2,4]triazin-4(3H)-one]
The IC50 of the first is higher: greater than 10 µM for the first, 1 to 10 µM for the second. The second is the more potent here.

`Cc1cc(C)n(Cc2ccc(C(=O)N3CCC(O)(Cn4cnn5cccc5c4=O)CC3)cc2)n1` [Compound I-69, 3-((1-(4-((3,5-dimethyl-1H-pyrazol-1-yl)methyl)benzoyl)-4-hydroxypiperidin-4-yl)methyl)pyrrolo[2,1-f][1,2,4]triazin-4(3H)-one] and `O=C(c1ccc(Cn2nnc3ccccc32)cc1)N1CCC(O)(Cn2cnn3cccc3c2=O)CC1` [Compound I-68, 3-((1-(4-((1H-benzo[d][1,2,3]triazol-1-yl)methyl)benzoyl)-4-hydroxypiperidin-4-yl)methyl)pyrrolo[2,1-f][1,2,4]triazin-4(3H)-one] fall in the same range of IC50: 1 to 10 µM for the first, 1 to 10 µM for the second.

`O=C(Nc1cc2c(=O)n(CC3(O)CCN(C(=O)C4CC4)CC3)cnn2c1)c1ccccc1OC(F)(F)F` [Compound I-110, N-(3-((1-(cyclopropanecarbonyl)-4-hydroxypiperidin-4-yl)methyl)-4-oxo-3,4-dihydropyrrolo[2,1-f][1,2,4]triazin-6-yl)-2-(trifluoromethoxy)benzamide] and `O=C(Nc1cc2c(=O)n(CC3(O)CCN(C(=O)C4CC4)CC3)cnn2c1)c1ccc(Cl)cc1Cl` [Compound I-111, 2,4-dichloro-N-(3-((1-(cyclopropanecarbonyl)-4-hydroxypiperidin-4-yl)methyl)-4-oxo-3,4-dihydropyrrolo[2,1-f][1,2,4]triazin-6-yl)benzamide] cannot be ordered by IC50: greater than 10 µM for the first, greater than 10 µM for the second.

First: CC(CC(=O)N1CCC(O)(Cn2cnn3cccc3c2=O)CC1)n1cccc1 (stereo not shown) [Compound I-57, 3-((1-(3-(1H-pyrrol-1-yl)butanoyl)-4-hydroxypiperidin-4-yl)methyl)pyrrolo[2,1-f][1,2,4]triazin-4(3H)-one]
Second: CC(CC(=O)N1CCC(O)(Cn2cnn3cc(Cl)cc3c2=O)CC1)c1ccccc1 (stereo not shown) [Compound I-49, 6-chloro-3-((4-hydroxy-1-(3-phenylbutanoyl)piperidin-4-yl)methyl)pyrrolo[2,1-f][1,2,4]triazin-4(3H)-one]
The IC50 of the first is lower: less than 0.2 µM for the first, 1 to 10 µM for the second.

`CN(C)C(=O)c1ccc(-c2ccc(C(=O)N3CCC(O)(Cn4cnn5cccc5c4=O)CC3)c(Cl)c2)cc1` [Compound I-78, 3′-chloro-4′-(4-hydroxy-4-((4-oxopyrrolo[2,1-f][1,2,4]triazin-3(4H)-yl)methyl)piperidine-1-carbonyl)-N,N-dimethyl-[1,1′-biphenyl]-4-carboxamide] and `O=C(c1ccc(-c2ccccc2)cc1Cl)N1CCC(O)(Cn2cnn3cccc3c2=O)CC1` [Compound I-50, 3-((1-(3-chloro-[1,1′-biphenyl]-4-carbonyl)-4-hydroxypiperidin-4-yl)methyl)pyrrolo[2,1-f][1,2,4]triazin-4(3H)-one] cannot be ordered by IC50: greater than 10 µM for the first, greater than 10 µM for the second.

Compared with `O=C(c1ccc(Cc2cccs2)cc1)N1CCC(O)(Cn2cnn3cccc3c2=O)CC1` [Compound I-70, 3-((4-hydroxy-1-(4-(thiophen-2-ylmethyl)benzoyl)piperidin-4-yl)methyl)pyrrolo[2,1-f][1,2,4]triazin-4(3H)-one], `O=C(c1ccc(-c2ccc3ocnc3c2)cc1)N1CCC(O)(Cn2cnn3cccc3c2=O)CC1` [Compound I-47, 3-((1-(4-(benzo[d]oxazol-5-yl)benzoyl)-4-hydroxypiperidin-4-yl)methyl)pyrrolo[2,1-f][1,2,4]triazin-4(3H)-one] is higher in IC50: 1 to 10 µM for the first, greater than 10 µM for the second. The first is the more potent here.

`COc1cccc(NC(=O)Nc2cc3c(=O)n(CC4(O)CCN(C(=O)C5CC5)CC4)cnn3c2)c1` [Compound I-101, 1-(3-((1-(cyclopropanecarbonyl)-4-hydroxypiperidin-4-yl)methyl)-4-oxo-3,4-dihydropyrrolo[2,1-f][1,2,4]triazin-6-yl)-3-(3-methoxyphenyl)urea] and `C[C@@H](NC(=O)Nc1cc2c(=O)n(CC3(O)CCN(C(=O)C4CC4)CC3)cnn2c1)c1ccccc1` [Compound I-95, (R)-1-(3-((1-(cyclopropanecarbonyl)-4-hydroxypiperidin-4-yl)methyl)-4-oxo-3,4-dihydropyrrolo[2,1-f][1,2,4]triazin-6-yl)-3-(1-phenylethyl)urea] cannot be ordered by IC50: greater than 10 µM for the first, greater than 10 µM for the second.

First: Cc1ccc2cc(-c3ccc(C(=O)N4CCC(O)(Cn5cnn6cccc6c5=O)CC4)cc3)ccc2n1 [Compound I-45, 3-((4-hydroxy-1-(4-(2-methylquinolin-6-yl)benzoyl)piperidin-4-yl)methyl)pyrrolo[2,1-f][1,2,4]triazin-4(3H)-one]
Second: Cc1ccc(-c2cccc(C(=O)N3CCC(O)(Cn4cnn5cccc5c4=O)CC3)c2)cc1C [Compound I-17, 3-((1-(3′,4′-dimethyl-[1,1′-biphenyl]-3-carbonyl)-4-hydroxypiperidin-4-yl)methyl)pyrrolo[2,1-f][1,2,4]triazin-4(3H)-one]
The IC50 of the first is lower: 1 to 10 µM for the first, greater than 10 µM for the second. The first is the more potent here.

First: O=C(c1cccc(-c2ccc3nccn3c2)c1)N1CCC(O)(Cn2cnn3cccc3c2=O)CC1 [Compound I-22, 3-((4-hydroxy-1-(3-(imidazo[1,2-a]pyridin-6-yl)benzoyl)piperidin-4-yl)methyl)pyrrolo[2,1-f][1,2,4]triazin-4(3H)-one]
Second: O=C(c1cccc(-c2ccc3c(c2)OCO3)c1)N1CCC(O)(Cn2cnn3cccc3c2=O)CC1 [Compound I-5, 3-((1-(3-(benzo[d][1,3]dioxol-5-yl)benzoyl)-4-hydroxypiperidin-4-yl)methyl)pyrrolo[2,1-f][1,2,4]triazin-4(3H)-one]
The IC50 of the first is higher: greater than 10 µM for the first, 1 to 10 µM for the second. The second is the more potent here.

Compared with `O=C(COc1ccc(Cl)c(Cl)c1)Nc1cc2c(=O)n(CC3(O)CCN(C(=O)C4CC4)CC3)cnn2c1` [Compound I-105, N-(3-((1-(cyclopropanecarbonyl)-4-hydroxypiperidin-4-yl)methyl)-4-oxo-3,4-dihydropyrrolo[2,1-f][1,2,4]triazin-6-yl)-2-(3,4-dichlorophenoxy)acetamide], `Cc1ccc(C(=O)Nc2cc3c(=O)n(CC4(O)CCN(C(=O)C5CC5)CC4)cnn3c2)cc1C` [Compound I-107, N-(3-((1-(cyclopropanecarbonyl)-4-hydroxypiperidin-4-yl)methyl)-4-oxo-3,4-dihydropyrrolo[2,1-f][1,2,4]triazin-6-yl)-3,4-dimethylbenzamide] is lower in IC50: greater than 10 µM for the first, 1 to 10 µM for the second. The second is the more potent here.
